Test results reported in the supplement of paper PMC10307832.

Compound: CC1=NC=CC(=C1)C2=CC=C(C=C2)CC(=O)NC3=CC=C(C=C3)C4=CN=CC=C4 [Wnt-C59] + Nc1nc2[nH]cc(CCc3ccc(C(=O)N[C@@H](CCC(=O)O)C(=O)O)cc3)c2c(=O)[nH]1 [Pemetrexed] (partner 0.2 µM)
Assay: relative viability (nuclei count vs DMSO), 5 days (fraction); higher = more cells survive
Summary of the method: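 Lung cancer cell lines, seeded in 1536-well plates, were treated the following day by pin tool with a single drug or with five library-drug doses (not always all listed) in √10 steps on top of a fixed anchor-drug dose. Cells were fixed and nuclei stained in one step after 5 days, and nuclei were counted. Relative viability is the nuclei count for treated wells divided by that for vehicle wells, reported as medians of duplicate plates.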

Row | Cell Line | relative viability (first compound 0.001 µM) | relative viability (first compound 0.01 µM) | relative viability (first compound 0.03162 µM) | relative viability (first compound 0.1 µM)
1 | NCI-H1734 | 0.414 | 0.389 | 0.423 | 0.394
2 | NCI-H1666 | 0.865 | 0.799 | 0.828 | 0.869
3 | BEN | 0.707 | 0.738 | 0.754 | 0.846
4 | ChaGo-K-1 | 0.258 | 0.259 | 0.252 | 0.266
5 | SK-MES-1 | 0.92 | 0.982 | 0.986 | 0.827
6 | NCI-H3122 | 0.219 | 0.216 | 0.197 | 0.195
7 | NCI-H1563 | 0.736 | 0.751 | 0.723 | 0.705
8 | CAL-12T | 1.33 | 1.18 | 1.29 | 1.09
9 | NCI-H1975 | 0.321 | 0.307 | 0.288 | 0.311
10 | NCI-H2009 | 0.988 | 1.11 | 1.07 | 1.04
11 | LC-2-ad | 0.282 | 0.297 | 0.271 | 0.283
12 | NCI-H647 | 0.162 | 0.158 | 0.201 | 0.178
13 | HCC-78 | 0.913 | 0.883 | 0.907 | 0.934
14 | H3255 | 0.598 | 0.553 | 0.583 | 0.554
15 | NCI-H1395 | 0.968 | 0.861 | 0.94 | 0.885
16 | PC-14 | 0.131 | 0.138 | 0.109 | 0.143
17 | NCI-H522 | 1.18 | 1.03 | 1.17 | 0.855
18 | HOP-62 | 0.34 | 0.294 | 0.353 | 0.29
19 | NCI-H2087 | 0.629 | 0.72 | 0.697 | 0.709
20 | NCI-H441 | 0.277 | 0.225 | 0.258 | 0.276
21 | NCI-H1755 | 0.421 | 0.407 | 0.419 | 0.402
22 | EKVX | 0.376 |  | 0.367 | 0.361
23 | A-427 | 0.936 | 1.04 | 0.994 | 1.1
24 | NCI-H1993 | 0.67 | 0.591 | 0.609 | 0.625

Row | Cell Line | relative viability (first compound 0.001 µM) | relative viability (first compound 0.01 µM) | relative viability (first compound 0.03162 µM) | relative viability (first compound 0.1 µM)
25 | NCI-H1651 | 0.577 | 0.618 | 0.648 | 0.558
26 | LXF-289 | 0.897 | 0.827 | 0.916 | 0.91
27 | NCI-H23 | 0.589 | 0.595 | 0.59 | 0.703
28 | LU99A | 0.205 | 0.195 | 0.178 | 0.195
29 | NCI-H1793 | 0.813 | 0.693 | 0.914 | 0.953
30 | NCI-H2085 | 0.837 | 0.887 | 0.963 | 0.888
31 | NCI-H2126 | 0.688 | 0.655 | 0.642 | 0.649
32 | LCLC-103H | 0.452 | 0.467 | 0.482 | 0.505
33 | NCI-H2347 | 0.46 | 0.489 | 0.451 | 0.434
34 | NCI-H1437 | 0.36 | 0.299 | 0.31 | 0.331
35 | NCI-H2170 | 0.271 | 0.275 | 0.253 | 0.274
36 | NCI-H1650 | 0.354 | 0.442 | 0.38 | 0.422
37 | LCLC-97TM1 | 0.169 | 0.181 | 0.18 | 0.183
38 | RERF-LC-KJ | 0.483 | 0.497 | 0.45 | 0.495
39 | HCC-827 | 0.282 | 0.262 | 0.282 | 0.255
40 | SK-LU-1 | 0.969 | 1 | 1 | 0.973
41 | NCI-H1944 | 0.615 | 0.594 | 0.639 | 0.602
42 | COR-L 105 | 1.13 | 0.887 | 1.14 | 1.15
43 | HARA | 0.206 | 0.206 | 0.26 | 0.237
44 | NCI-H460 | 0.0664 | 0.0664 | 0.0652 | 0.0706
45 | NCI-H358 | 0.167 | 0.176 | 0.207 | 0.172
46 | SW 1573 | 0.863 | 0.848 | 0.879 | 0.761
47 | NCI-H2228 | 0.306 | 0.334 | 0.337 | 0.328
48 | HCC-366 | 0.164 | 0.16 | 0.163 | 0.155

Row | Cell Line | relative viability (first compound 0.001 µM) | relative viability (first compound 0.01 µM) | relative viability (first compound 0.03162 µM) | relative viability (first compound 0.1 µM)
49 | NCI-H520 | 0.655 | 0.626 | 0.787 | 0.682
50 | HCC-44 | 0.619 | 0.647 | 0.64 | 0.629
51 | NCI-H2023 | 0.238 | 0.258 | 0.221 | 0.24
52 | LOU-NH91 | 0.386 | 0.384 | 0.345 | 0.38
53 | LK-2 | 0.332 | 0.295 | 0.323 | 0.331
54 | NCI-H322M | 0.649 | 0.589 | 0.579 | 0.569
55 | NCI-H650 | 1.09 | 0.969 | 0.934 | 0.951
56 | NCI-H596 | 0.533 | 0.569 | 0.483 | 0.479
57 | PC-3 [JPC-3] | 1.11 | 1.24 | 1.04 | 1.47
58 | NCI-H1355 | 1.04 | 1.03 | 1.03 | 0.96
59 | COR-L23 | 0.221 | 0.194 | 0.206 | 0.2
60 | 201T | 0.357 | 0.326 | 0.311 | 0.36
61 | NCI-H2342 | 0.758 | 0.773 | 0.892 | 0.777
62 | NCI-H1792 | 0.723 | 0.714 | 0.777 | 1.18
63 | NCI-H661 | 0.884 | 0.878 | 0.91 | 0.884
64 | HCC-15 | 0.228 | 0.235 | 0.215 | 0.225
65 | NCI-H2405 | 1.02 | 1.01 | 0.989 | 1.08
66 | SW 900 | 0.505 | 0.469 | 0.483 | 0.478
67 | NCI-H838 | 0.235 | 0.24 | 0.267 | 0.242
68 | EPLC-272H | 0.38 | 0.354 | 0.318 | 0.315
69 | NCI-H1915 | 0.502 | 0.464 | 0.517 | 0.505
70 | NCI-H1648 | 0.615 | 0.922 | 0.81 | 0.66
71 | EMC-BAC-2 | 0.474 | 0.447 | 0.426 | 0.439
